# Assay results: ChEMBL document CHEMBL5726498, “Substituted benzothiophenyl derivatives as GPR40 agonists for the treatment of type II diabetes” (2017)
# Target: Free fatty acid receptor 1 (Homo sapiens, UniProt O14842)
# Assay: Calcium Flux Assay: Compounds were tested in a calcium flux assay using transfected HEK293 cells stably expressing either human GPR40 or rat GPR40. Human GPR40 expressing cells were cultured in DMEM-High Glucose media supplemented with 10% fetal bovine serum, 1×L-Glutamine, 1× Penicillin/Streptomycin and 500 μg/mL G418. Rat GPR40 expressing cells were cultured in DMEM-High Glucose media supplemented with 10% fetal bovine serum and 1 μg/mL puromycin. Cells were plated into poly-D-lysine coated 384-well plates and cultured overnight in a 37° C. humidified tissue culture incubator under 5% CO2/[…] atmosphere. On the day of the experiment, the culture media was replaced with assay buffer (HBSS, 20 mM HEPES, 0.1% BSA) and the cells incubated at 37° C. for 1 h. Calcium-sensitive fluorescent dye (Fluo 8 No-Wash Calcium Dye, ABD Bioquest) was then added and the cells incubated for another 30 min at 37° C. followed by 15 min at room temperature while protected from the light. The cell plate and a plate of diluted compounds of Formula (I) were loaded into a fluorescent plate reader that added compounds onto the cells while measuring the fluorescence intensity of each well.
# Chain of Free fatty acid receptor 1 (O14842 whole entry): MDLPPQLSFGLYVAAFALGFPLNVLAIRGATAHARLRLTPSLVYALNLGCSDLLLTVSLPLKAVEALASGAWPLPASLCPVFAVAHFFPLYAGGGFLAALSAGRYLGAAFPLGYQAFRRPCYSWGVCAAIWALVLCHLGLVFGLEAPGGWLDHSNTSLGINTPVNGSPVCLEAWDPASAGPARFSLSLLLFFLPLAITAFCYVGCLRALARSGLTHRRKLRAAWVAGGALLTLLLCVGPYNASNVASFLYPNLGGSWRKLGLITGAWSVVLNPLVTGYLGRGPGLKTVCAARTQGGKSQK
smiles,measurement,value
CC#C[C@@H](CC(=O)O)c1ccc(OCc2ccc3scc(-c4ccccc4S(C)(=O)=O)c3c2)cc1,EC50,15 nM
